Laboratory results from US8691864B2, “Agents useful for reducing amyloid precursor protein and treating dementia and methods of use thereof” (priority 2000, dated 2014).

tested on: SH-SY-5Y Cells; assay: MTS toxicity assay in SHSY5Y cells; type: cell-based, human; conditions: Dose 0.08 uM
Method: (§1) An enzyme-linked immunosorbent assay was developed to detect secreted APP in SHSY5Y cells, a human neuroblastoma cell line. The purpose of the screen was to discover small molecules that inhibit APP protein synthesis in SHSY5Y cells. SHSY5Y cells were plated at 1×10^5 cells/well in […] of DMEM containing 0.5% heat inactivated FBS in 96 well tissue culture treated plates (Falcon no. 35 3072). 144 MES compounds were tested at final concentrations of […] in 0.1% DMSO. Compounds were added and the plates incubated for 16 hours at 37° C./5% CO2. Maxisorp plates (Nunc no. 437958) were coated overnight with […] capture antibody (Biosource 44-100) diluted in Ca^++ and Mg^++ free PBS. Biosource 44-100 is a mouse mAb that recognizes aa 1-100 of human APP. Plates were blocked for 30 minutes with 1 mg/mL BSA in Ca^++ and Mg^++ free PBS. Plates were washed 3× with wash buffer (Ca^++ and Mg^++ free PBS+0.01% Tween20). […] of supernatants and non-cultured medium controls were transferred from culture plates to ELISA plates. Culture plates were reserved for toxicity analysis. Supernatants were incubated for 4 hours at RT on a plate shaker. After supernatant incubation, plates were washed 3×. Primary antibody (Signet Clone 6E-10 biotin) was added at 0.3125 mg/mL and incubated overnight at 4° C. The recognition site of 6E-10 is aa 1-17 of Ab. For detection, a 1:3000 dilution of horseradish peroxidase conjugated streptavidin (Endogen no. N-100) was incubated for 30 minutes. Plates were washed 3×. Enzyme activity was assessed by incubation with […] TMB substrate solution (Moss no. TMB-US) for 20 minutes. The reaction was stopped by the addition of […] 0.18M sulfuric acid. Optical density was read at 450 nm on Wallac Victor2 plate reader. During the first incubation, toxicity was determined using MTS assay, Cell Titer96 AQ reagent (Promega no. G5430). The background values from the non-cultured medium control were subtracted from the sample values and secreted APP levels and toxicity were expressed as % vehicle control. Of the 144 MES compounds screened, 12 inhibited secreted APP as determined by ELISA. The results are depicted in FIGS. 13A-M.
(§2) Using the experimental procedure outlined above, APP secretion and toxicity studies were performed on several other non-carbamate compounds, and the results are shown in Tables 3 and 4. The compound structures are provided in Table 2 in the application, which are identified by their MES number.

Structure (SMILES)	APP Toxicity SH-SY-5Y Cells (MTS assay)
C[C@@]12CCN(Cc3ccccc3)C1Nc1ccc(O)cc12 (stereo partly drawn) [MES 9279]	102.9 % vehicle control
COc1ccc2c(c1)c(CCN(C)C)cn2Cc1ccccc1 [MES 9191, N,N-Dimethyl-N^1-benzyl-5-methoxytryptamine]	104.5 % vehicle control
CN1CC[C@@]2(C)c3cc(O)ccc3N(C)C2NC1=O (single isomer, unassigned; (-)) [MES 9205]	108.7 % vehicle control

same assay, conditions: Dose 0.25 uM

Structure (SMILES)	APP Toxicity SH-SY-5Y Cells (MTS assay)
C[C@@]12CCN(Cc3ccccc3)C1Nc1ccc(O)cc12 (stereo partly drawn) [MES 9279]	101.1 % vehicle control
COc1ccc2c(c1)c(CCN(C)C)cn2Cc1ccccc1 [MES 9191, N,N-Dimethyl-N^1-benzyl-5-methoxytryptamine]	103.9 % vehicle control
CN1CC[C@@]2(C)c3cc(O)ccc3N(C)C2NC1=O (single isomer, unassigned; (-)) [MES 9205]	105.8 % vehicle control

same assay, conditions: Dose 0.74 uM

Structure (SMILES)	APP Toxicity SH-SY-5Y Cells (MTS assay)
C[C@@]12CCN(Cc3ccccc3)C1Nc1ccc(O)cc12 (stereo partly drawn) [MES 9279]	100.1 % vehicle control
COc1ccc2c(c1)c(CCN(C)C)cn2Cc1ccccc1 [MES 9191, N,N-Dimethyl-N^1-benzyl-5-methoxytryptamine]	103.7 % vehicle control
CN1CC[C@@]2(C)c3cc(O)ccc3N(C)C2NC1=O (single isomer, unassigned; (-)) [MES 9205]	105.6 % vehicle control

same assay, conditions: Dose 2 uM

Structure (SMILES)	APP Toxicity SH-SY-5Y Cells (MTS assay)
C[C@@]12CCN(Cc3ccccc3)C1Nc1ccc(O)cc12 (stereo partly drawn) [MES 9279]	68.63 % vehicle control
COc1ccc2c(c1)[C@@]1(C)CC[N+](C)(C)C1N2Cc1ccccc1.[I-] (stereo partly drawn) [MES 9234]	102.55 % vehicle control
COc1ccc2c(c1)c(CCN(C)C)cn2Cc1ccccc1 [MES 9191, N,N-Dimethyl-N^1-benzyl-5-methoxytryptamine]	99.18 % vehicle control
CN1CC[C@@]2(C)c3cc(O)ccc3N(C)C2NC1=O (single isomer, unassigned; (-)) [MES 9205]	97.9 % vehicle control
COc1ccc2c(c1)[C@@]1(C)CCN(C)C1N2C (stereo partly drawn) [MES 9229]	99.97 % vehicle control
COC(=O)CC1(C)C(=O)N(C)c2ccc(OC)cc21 (stereo not drawn) [MES 9309]	100.85 % vehicle control
CN(C)CC[C@]1(C)C(=O)N(C)c2ccc(O)cc21 [MES 9311]	101.1 % vehicle control
COc1ccc2c(c1)C1(C)CCN(C)C1N2 (stereo not drawn) [MES 9201]	98.9 % vehicle control

same assay, conditions: Dose 6 uM

Structure (SMILES)	APP Toxicity SH-SY-5Y Cells (MTS assay)
C[C@@]12CCN(Cc3ccccc3)C1Nc1ccc(O)cc12 (stereo partly drawn) [MES 9279]	46.67 % vehicle control
COc1ccc2c(c1)[C@@]1(C)CC[N+](C)(C)C1N2Cc1ccccc1.[I-] (stereo partly drawn) [MES 9234]	99.75 % vehicle control
COc1ccc2c(c1)c(CCN(C)C)cn2Cc1ccccc1 [MES 9191, N,N-Dimethyl-N^1-benzyl-5-methoxytryptamine]	92.84 % vehicle control
CN1CC[C@@]2(C)c3cc(O)ccc3N(C)C2NC1=O (single isomer, unassigned; (-)) [MES 9205]	97.73 % vehicle control
COc1ccc2c(c1)[C@@]1(C)CCN(C)C1N2C (stereo partly drawn) [MES 9229]	96.07 % vehicle control
COC(=O)CC1(C)C(=O)N(C)c2ccc(OC)cc21 (stereo not drawn) [MES 9309]	98.6 % vehicle control
CN(C)CC[C@]1(C)C(=O)N(C)c2ccc(O)cc21 [MES 9311]	101.25 % vehicle control
COc1ccc2c(c1)C1(C)CCN(C)C1N2 (stereo not drawn) [MES 9201]	98.65 % vehicle control

same assay, conditions: Dose 20 uM

Structure (SMILES)	APP Toxicity SH-SY-5Y Cells (MTS assay)
C[C@@]12CCN(Cc3ccccc3)C1Nc1ccc(O)cc12 (stereo partly drawn) [MES 9279]	38.63 % vehicle control
COc1ccc2c(c1)[C@@]1(C)CC[N+](C)(C)C1N2Cc1ccccc1.[I-] (stereo partly drawn) [MES 9234]	99.3 % vehicle control
COc1ccc2c(c1)c(CCN(C)C)cn2Cc1ccccc1 [MES 9191, N,N-Dimethyl-N^1-benzyl-5-methoxytryptamine]	91.1 % vehicle control
CN1CC[C@@]2(C)c3cc(O)ccc3N(C)C2NC1=O (single isomer, unassigned; (-)) [MES 9205]	33.33 % vehicle control
COc1ccc2c(c1)[C@@]1(C)CCN(C)C1N2C (stereo partly drawn) [MES 9229]	91.47 % vehicle control
COC(=O)CC1(C)C(=O)N(C)c2ccc(OC)cc21 (stereo not drawn) [MES 9309]	101.1 % vehicle control
CN(C)CC[C@]1(C)C(=O)N(C)c2ccc(O)cc21 [MES 9311]	99.55 % vehicle control
COc1ccc2c(c1)C1(C)CCN(C)C1N2 (stereo not drawn) [MES 9201]	98.25 % vehicle control

tested on: secreted APP; assay: ELISA for secreted APP in SHSY5Y cells; type: cell-based, human; conditions: Dose 0.08 uM, 16 hours
Method: as §1, §2

Structure (SMILES)	APP Secretion by SH-SY-5Y Cells
C[C@@]12CCN(Cc3ccccc3)C1Nc1ccc(O)cc12 (stereo partly drawn) [MES 9279]	97.8 % vehicle control
COc1ccc2c(c1)c(CCN(C)C)cn2Cc1ccccc1 [MES 9191, N,N-Dimethyl-N^1-benzyl-5-methoxytryptamine]	100.8 % vehicle control
CN1CC[C@@]2(C)c3cc(O)ccc3N(C)C2NC1=O (single isomer, unassigned; (-)) [MES 9205]	115.1 % vehicle control

same assay, conditions: Dose 0.25 uM, 16 hours

Structure (SMILES)	APP Secretion by SH-SY-5Y Cells
C[C@@]12CCN(Cc3ccccc3)C1Nc1ccc(O)cc12 (stereo partly drawn) [MES 9279]	98.4 % vehicle control
COc1ccc2c(c1)c(CCN(C)C)cn2Cc1ccccc1 [MES 9191, N,N-Dimethyl-N^1-benzyl-5-methoxytryptamine]	101.6 % vehicle control
CN1CC[C@@]2(C)c3cc(O)ccc3N(C)C2NC1=O (single isomer, unassigned; (-)) [MES 9205]	107.4 % vehicle control

same assay, conditions: Dose 0.74 uM, 16 hours

Structure (SMILES)	APP Secretion by SH-SY-5Y Cells
C[C@@]12CCN(Cc3ccccc3)C1Nc1ccc(O)cc12 (stereo partly drawn) [MES 9279]	97 % vehicle control
COc1ccc2c(c1)c(CCN(C)C)cn2Cc1ccccc1 [MES 9191, N,N-Dimethyl-N^1-benzyl-5-methoxytryptamine]	99.87 % vehicle control
CN1CC[C@@]2(C)c3cc(O)ccc3N(C)C2NC1=O (single isomer, unassigned; (-)) [MES 9205]	114.7 % vehicle control

same assay, conditions: Dose 2 uM, 16 hours

Structure (SMILES)	APP Secretion by SH-SY-5Y Cells
C[C@@]12CCN(Cc3ccccc3)C1Nc1ccc(O)cc12 (stereo partly drawn) [MES 9279]	43.27 % vehicle control
COc1ccc2c(c1)[C@@]1(C)CC[N+](C)(C)C1N2Cc1ccccc1.[I-] (stereo partly drawn) [MES 9234]	106.4 % vehicle control
COc1ccc2c(c1)c(CCN(C)C)cn2Cc1ccccc1 [MES 9191, N,N-Dimethyl-N^1-benzyl-5-methoxytryptamine]	100.74 % vehicle control
CN1CC[C@@]2(C)c3cc(O)ccc3N(C)C2NC1=O (single isomer, unassigned; (-)) [MES 9205]	96.73 % vehicle control
COc1ccc2c(c1)[C@@]1(C)CCN(C)C1N2C (stereo partly drawn) [MES 9229]	111.6 % vehicle control
COC(=O)CC1(C)C(=O)N(C)c2ccc(OC)cc21 (stereo not drawn) [MES 9309]	100 % vehicle control
CN(C)CC[C@]1(C)C(=O)N(C)c2ccc(O)cc21 [MES 9311]	102.45 % vehicle control
COc1ccc2c(c1)C1(C)CCN(C)C1N2 (stereo not drawn) [MES 9201]	97.25 % vehicle control

same assay, conditions: Dose 6 uM, 16 hours

Structure (SMILES)	APP Secretion by SH-SY-5Y Cells
C[C@@]12CCN(Cc3ccccc3)C1Nc1ccc(O)cc12 (stereo partly drawn) [MES 9279]	42.37 % vehicle control
COc1ccc2c(c1)[C@@]1(C)CC[N+](C)(C)C1N2Cc1ccccc1.[I-] (stereo partly drawn) [MES 9234]	96.5 % vehicle control
COc1ccc2c(c1)c(CCN(C)C)cn2Cc1ccccc1 [MES 9191, N,N-Dimethyl-N^1-benzyl-5-methoxytryptamine]	65.3 % vehicle control
CN1CC[C@@]2(C)c3cc(O)ccc3N(C)C2NC1=O (single isomer, unassigned; (-)) [MES 9205]	96.9 % vehicle control
COc1ccc2c(c1)[C@@]1(C)CCN(C)C1N2C (stereo partly drawn) [MES 9229]	111.4 % vehicle control
COC(=O)CC1(C)C(=O)N(C)c2ccc(OC)cc21 (stereo not drawn) [MES 9309]	106.4 % vehicle control
CN(C)CC[C@]1(C)C(=O)N(C)c2ccc(O)cc21 [MES 9311]	103.05 % vehicle control
COc1ccc2c(c1)C1(C)CCN(C)C1N2 (stereo not drawn) [MES 9201]	110.75 % vehicle control

same assay, conditions: Dose 20 uM, 16 hours

Structure (SMILES)	APP Secretion by SH-SY-5Y Cells
C[C@@]12CCN(Cc3ccccc3)C1Nc1ccc(O)cc12 (stereo partly drawn) [MES 9279]	18.4 % vehicle control
COc1ccc2c(c1)[C@@]1(C)CC[N+](C)(C)C1N2Cc1ccccc1.[I-] (stereo partly drawn) [MES 9234]	98.8 % vehicle control
COc1ccc2c(c1)c(CCN(C)C)cn2Cc1ccccc1 [MES 9191, N,N-Dimethyl-N^1-benzyl-5-methoxytryptamine]	64.36 % vehicle control
CN1CC[C@@]2(C)c3cc(O)ccc3N(C)C2NC1=O (single isomer, unassigned; (-)) [MES 9205]	22.17 % vehicle control
COc1ccc2c(c1)[C@@]1(C)CCN(C)C1N2C (stereo partly drawn) [MES 9229]	125.1 % vehicle control
COC(=O)CC1(C)C(=O)N(C)c2ccc(OC)cc21 (stereo not drawn) [MES 9309]	100.9 % vehicle control
CN(C)CC[C@]1(C)C(=O)N(C)c2ccc(O)cc21 [MES 9311]	102.7 % vehicle control
COc1ccc2c(c1)C1(C)CCN(C)C1N2 (stereo not drawn) [MES 9201]	124.65 % vehicle control
